Test results published in PMC6481345, “A novel anti-melanoma SRC-family kinase inhibitor” (Oncotarget, 2019).

Tests used:
Assay type in all cases: cell-based
[1] = test system: MOLT-4 leukemia cell line; test: NCI-60 human tumor cell line screen
Protocol: (§1) We first tested the impact of SAB298 on NCI-60 human tumor cell lines that included eight melanomas (performed by the NCI Development Therapeutics Program).
(§2) SFK-inhibitors were tested on a panel of NCI-60 cell lines (Supplementary Table 1) and 30 melanoma cell lines and NBMEL, i.e., normal human melanocytes isolated from a newborn foreskin (Table 1 and Supplementary Table 2). The Yale melanoma cohort designated YU originated from tumors excised to improve patient quality of life and used with participants’ informed consent according to Health Insurance Portability and Accountability Act (HIPAA) regulations with Human Investigative Committee protocol.
(§3) Supplementary Table 1: Cellular activity of SAB298 in a Panel of NCI-60 cancer cell lines*
(§4) measured protein; and TI is LC50/GI50.
(§5) Supplementary Table 2: Description of Melanoma Cell lines. See Supplementary_Table_2

[2] = test system: HCT-116 colon cancer cell line; test: NCI-60 human tumor cell line screen
Protocol: as §1, §2, §3, §4, §5

[3] = test system: NBMEL normal human melanocytes; test: CellTiter-Glo Luminescent Cell Viability Assay; conditions: Melanocyte, WT, 72 hrs
Protocol: as §2
(§6) The melanoma cells were grown in OptiMEM (Invitrogen, Carlsbad, CA) supplemented with 5% fetal calf serum and antibiotics. The normal human melanocytes (NBMEL) were grown in medium supplemented with bFGF, IBMX and dbcAMP [32]. Most of the Yale melanoma cell lines were characterized by next-generation sequencing (Supplementary Table 2).
Cell proliferation was measured with the CellTiter-Glo® Luminescent Cell Viability Assay (Promega Corporation, Madison, WI). Melanoma cells were seeded in 96-well plates in triplicate or quadruplet wells, with increasing concentrations of kinase inhibitors for 72 hrs. The rate of proliferation was also tested after knockdown of different SRC-family kinases (SFK) with hairpin lentivirus shRNA as indicated. […] The statistical significance of synergism of response to drug combinations was evaluated by following Chou and Talalay algorithm. […]

YUHIMO melanoma cells = test: CellTiter-Glo Luminescent Cell Viability Assay; conditions: Homo sapiens, PDE4DIP-BRAF fusion, 72 hrs
Protocol: as §6
(§7) Cell proliferation was measured with the CellTiter-Glo® Luminescent Cell Viability Assay (Promega Corporation, Madison, WI). Melanoma cells were seeded in 96-well plates in triplicate or quadruplet wells, with increasing concentrations of kinase inhibitors for 72 hrs. The rate of proliferation was also tested after knockdown of different SRC-family kinases (SFK) with hairpin lentivirus shRNA as indicated. […] The statistical significance of synergism of response to drug combinations was evaluated by following Chou and Talalay algorithm. See also details in Supplementary Material.

YUCRATE melanoma cells = test: CellTiter-Glo Luminescent Cell Viability Assay; conditions: Homo sapiens, BRAF G469A, 72 hrs
Protocol: as §6, §7

YUNIS melanoma cells = test: CellTiter-Glo Luminescent Cell Viability Assay; conditions: Homo sapiens, HRAS Q61K, 72 hrs
Protocol: as §6, §7

YUROL melanoma cells = test: CellTiter-Glo Luminescent Cell Viability Assay; conditions: Homo sapiens, WT/WT, 72 hrs
Protocol: as §6, §7

SK-MEL-23 melanoma cells = test: CellTiter-Glo Luminescent Cell Viability Assay; conditions: Homo sapiens, SK-MEL-23, WT/WT, 72 hrs
Protocol: as §6, §7

YUFURL melanoma cells = test: CellTiter-Glo Luminescent Cell Viability Assay; conditions: Homo sapiens, NRAS G12D, 72 hrs
Protocol: as §6, §7

YUHEF melanoma cells = test: CellTiter-Glo Luminescent Cell Viability Assay; conditions: Homo sapiens, WT/WT, 72 hrs
Protocol: as §6, §7

YUZEST melanoma cells = test: CellTiter-Glo Luminescent Cell Viability Assay; conditions: Homo sapiens, BRAF V600E, 72 hrs
Protocol: as §6, §7

YUMAC melanoma cells = test: CellTiter-Glo Luminescent Cell Viability Assay; conditions: Homo sapiens, BRAF V600K, 72 hrs
Protocol: as §6, §7

YUPEPO melanoma cells = test: CellTiter-Glo Luminescent Cell Viability Assay; conditions: Homo sapiens, WT/WT, GNA11 Q209L, 72 hrs
Protocol: as §6, §7

YUTOGS melanoma cells = test: CellTiter-Glo Luminescent Cell Viability Assay; conditions: Homo sapiens, WT/WT, 72 hrs
Protocol: as §6, §7

SK-MEL-28 melanoma cells = test: CellTiter-Glo Luminescent Cell Viability Assay; conditions: Homo sapiens, SK-MEL-28, BRAF V600E, 72 hrs
Protocol: as §6, §7

YUGEN8 melanoma cells = test: CellTiter-Glo Luminescent Cell Viability Assay; conditions: Homo sapiens, YUGEN8, BRAF V600E, 72 hrs
Protocol: as §6, §7

YUGANK melanoma cells = test: CellTiter-Glo Luminescent Cell Viability Assay; conditions: Homo sapiens, NRAS Q61K, 72 hrs
Protocol: as §6, §7

YULIPPY melanoma cells = test: CellTiter-Glo Luminescent Cell Viability Assay; conditions: Homo sapiens, BRAF V600E, 72 hrs
Protocol: as §6, §7

YUCHIME melanoma cells = test: CellTiter-Glo Luminescent Cell Viability Assay; conditions: Homo sapiens, BRAF V600K/M, 72 hrs
Protocol: as §6, §7

YURIF melanoma cells = test: CellTiter-Glo Luminescent Cell Viability Assay; conditions: Homo sapiens, BRAF V600K, 72 hrs
Protocol: as §6, §7

YUKSI melanoma cells = test: CellTiter-Glo Luminescent Cell Viability Assay; conditions: Homo sapiens, BRAF V600K, 72 hrs
Protocol: as §6, §7

YUDOSO melanoma cells = test: CellTiter-Glo Luminescent Cell Viability Assay; conditions: Homo sapiens, NRAS Q61K, 72 hrs
Protocol: as §6, §7

YUTICA melanoma cells = test: CellTiter-Glo Luminescent Cell Viability Assay; conditions: Homo sapiens, NRAS Q61R, 72 hrs
Protocol: as §6, §7

[4] = 50% growth inhibition, five dose, average of 2 experiments
[5] = cytotoxic concentration, 50% reduction in measured protein, read-out: LC50 (the source's name)

Nc1ncnc2c1c(-c1ccc(Oc3ccccc3)cc1)nn2C[C@@H]1SSC[C@@H]1O [SAB298, (3S, 4S)-3-((4-amino-3-(4-phenoxyphenyl)-1H-pyrazolo[3,4-d]pyrimidin-1-yl)methyl)-1,2-dithiolan-4-ol]
GI50 [1, 4]: 32 nM | CC50 [1, 5]: > 100000 nM | GI50 [2, 4]: 134 nM | CC50 [2, 5]: 6520 nM | IC50 [3]: 968 nM | IC50 (YUHIMO melanoma cells): 237 nM | IC50 (YUCRATE melanoma cells): 282 nM | IC50 (YUNIS melanoma cells): 2580 nM | IC50 (YUROL melanoma cells): 717 nM | IC50 (SK-MEL-23 melanoma cells): 162 nM | IC50 (YUFURL melanoma cells): 371 nM | IC50 (YUHEF melanoma cells): 257 nM | IC50 (YUZEST melanoma cells): 263 nM | IC50 (YUMAC melanoma cells): 894 nM | IC50 (YUPEPO melanoma cells): 264 nM | IC50 (YUTOGS melanoma cells): 347 nM | IC50 (SK-MEL-28 melanoma cells): 812 nM | IC50 (YUGEN8 melanoma cells): 115 nM | IC50 (YUGANK melanoma cells): 456 nM | IC50 (YULIPPY melanoma cells): 111 nM | IC50 (YUCHIME melanoma cells): 2480 nM | IC50 (YURIF melanoma cells): 500 nM | IC50 (YUKSI melanoma cells): 582 nM | IC50 (YUDOSO melanoma cells): 2360 nM | IC50 (YUTICA melanoma cells): 766 nM
